{"source": "paper PMC5439695", "about": "(PLoS ONE, 2017); on hek293 flor emax 0: unit not given here", "key": {"[1]": {"system": "HepG2 cells", "settings": "HepG2 glo"}, "[2]": {"system": "HEK293 cells", "settings": "HEK293 flor"}, "[3]": {"system": "HEK293 and HepG2 cell lines", "settings": "any activity in any time point/assay"}, "[4]": {"system": "HEK293 cells", "settings": "HEK293 glo"}, "[5]": {"system": "HepG2 cells", "experiment": "CellTox Green Cytotoxicity Assay (flor) in HepG2, HepG2[flor];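 on hepg2 flor emax 0: percent activity versus DMSO-only wells with baseline rescaled to 0%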;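 on hepg2 flor emax 40: percent activity versus DMSO-only wells with baseline rescaled to 0%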", "format": "cell-based, human", "settings": "HepG2 flor"}}, "data": [{"smiles": "Cc1cc(N)c2cc(NC(=O)Nc3ccc4nc(C)cc(N)c4c3)ccc2n1.Cl.Cl", "note": "[Aminoquinuride dihydrochloride]", "values": [{"measurement": "hepg2_glo_auc", "setting": "[1]", "result": 0}, {"measurement": "hepg2_glo_time", "setting": "[1]", "result": 48}, {"measurement": "hepg2_glo_bin", "setting": "[1]; kinetics bin", "result": "inactive"}, {"measurement": "hepg2_glo_emax_0", "setting": "[1]; time point 0", "result": 0}, {"measurement": "hepg2_glo_pod_0", "setting": "[1]; time point 0", "result": -4.417}, {"measurement": "hepg2_glo_wauc_0", "setting": "[1]; time point 0", "result": 0}, {"measurement": "hepg2_glo_emax_8", "setting": "[1]; time point 8", "result": 0}, {"measurement": "hepg2_glo_pod_8", "setting": "[1]; time point 8", "result": -4.417}, {"measurement": "hepg2_glo_wauc_8", "setting": "[1]; time point 8", "result": 0}, {"measurement": "hepg2_glo_emax_16", "setting": "[1]; time point 16", "result": 0}, {"measurement": "hepg2_glo_pod_16", "setting": "[1]; time point 16", "result": -4.417}, {"measurement": "hepg2_glo_wauc_16", "setting": "[1]; time point 16", "result": 0}, {"measurement": "hepg2_glo_emax_24", "setting": "[1]; time point 24", "result": 0}, {"measurement": "hepg2_glo_pod_24", "setting": "[1]; time point 24", "result": -4.417}, {"measurement": "hepg2_glo_wauc_24", "setting": "[1]; time point 24", "result": 0}, {"measurement": "hepg2_glo_emax_32", "setting": "[1]; time point 32", "result": 0}, {"measurement": "hepg2_glo_pod_32", "setting": "[1]; time point 32", "result": -4.417}, {"measurement": "hepg2_glo_wauc_32", "setting": "[1]; time point 32", "result": 0}, {"measurement": "hepg2_glo_emax_40", "setting": "[1]; time point 40", "result": 0}, {"measurement": "hepg2_glo_pod_40", "setting": "[1]; time point 40", "result": -4.417}, {"measurement": "hepg2_glo_wauc_40", "setting": "[1]; time point 40", "result": 0}, {"measurement": "hek293_flor_auc", "setting": "[2]", "result": 0}, {"measurement": "hek293_flor_time", "setting": "[2]", "result": 48}, {"measurement": "hek293_flor_bin", "setting": "[2]; kinetics bin", "result": "inactive"}, {"measurement": "hek293_flor_emax_0", "setting": "[2]; time point 0", "result": 0}, {"measurement": "hek293_flor_pod_0", "setting": "[2]; time point 0", "result": -4.417}, {"measurement": "hek293_flor_wauc_0", "setting": "[2]; time point 0", "result": 0}, {"measurement": "hek293_flor_emax_8", "setting": "[2]; time point 8", "result": 0}, {"measurement": "hek293_flor_pod_8", "setting": "[2]; time point 8", "result": -4.417}, {"measurement": "hek293_flor_wauc_8", "setting": "[2]; time point 8", "result": 0}, {"measurement": "hek293_flor_emax_16", "setting": "[2]; time point 16", "result": 0}, {"measurement": "hek293_flor_pod_16", "setting": "[2]; time point 16", "result": -4.417}, {"measurement": "hek293_flor_wauc_16", "setting": "[2]; time point 16", "result": 0}, {"measurement": "hek293_flor_emax_24", "setting": "[2]; time point 24", "result": 0}, {"measurement": "hek293_flor_pod_24", "setting": "[2]; time point 24", "result": -4.417}, {"measurement": "hek293_flor_wauc_24", "setting": "[2]; time point 24", "result": 0}, {"measurement": "hek293_flor_emax_32", "setting": "[2]; time point 32", "result": 0}, {"measurement": "hek293_flor_pod_32", "setting": "[2]; time point 32", "result": -4.417}, {"measurement": "hek293_flor_wauc_32", "setting": "[2]; time point 32", "result": 0}, {"measurement": "hek293_flor_emax_40", "setting": "[2]; time point 40", "result": 0}, {"measurement": "hek293_flor_pod_40", "setting": "[2]; time point 40", "result": -4.417}, {"measurement": "hek293_flor_wauc_40", "setting": "[2]; time point 40", "result": 0}, {"measurement": "information", "setting": "[3]", "result": 0}, {"measurement": "hek293_glo_auc", "setting": "[4]", "result": 0}, {"measurement": "hek293_glo_time", "setting": "[4]", "result": 48}, {"measurement": "hek293_glo_bin", "setting": "[4]; kinetics bin", "result": "inactive"}, {"measurement": "hek293_glo_emax_0", "setting": "[4]; time point 0", "result": 0}, {"measurement": "hek293_glo_pod_0", "setting": "[4]; time point 0", "result": -4.417}, {"measurement": "hek293_glo_wauc_0", "setting": "[4]; time point 0", "result": 0}, {"measurement": "hek293_glo_emax_8", "setting": "[4]; time point 8", "result": 0}, {"measurement": "hek293_glo_pod_8", "setting": "[4]; time point 8", "result": -4.417}, {"measurement": "hek293_glo_wauc_8", "setting": "[4]; time point 8", "result": 0}, {"measurement": "hek293_glo_emax_16", "setting": "[4]; time point 16", "result": 0}, {"measurement": "hek293_glo_pod_16", "setting": "[4]; time point 16", "result": -4.417}, {"measurement": "hek293_glo_wauc_16", "setting": "[4]; time point 16", "result": 0}, {"measurement": "hek293_glo_emax_24", "setting": "[4]; time point 24", "result": 0}, {"measurement": "hek293_glo_pod_24", "setting": "[4]; time point 24", "result": -4.417}, {"measurement": "hek293_glo_wauc_24", "setting": "[4]; time point 24", "result": 0}, {"measurement": "hek293_glo_emax_32", "setting": "[4]; time point 32", "result": 0}, {"measurement": "hek293_glo_pod_32", "setting": "[4]; time point 32", "result": -4.417}, {"measurement": "hek293_glo_wauc_32", "setting": "[4]; time point 32", "result": 0}, {"measurement": "hek293_glo_emax_40", "setting": "[4]; time point 40", "result": 0}, {"measurement": "hek293_glo_pod_40", "setting": "[4]; time point 40", "result": -4.417}, {"measurement": "hek293_glo_wauc_40", "setting": "[4]; time point 40", "result": 0}, {"measurement": "hepg2_flor_auc", "setting": "[5]", "result": 0}, {"measurement": "hepg2_flor_time", "setting": "[5]", "result": 48}, {"measurement": "hepg2_flor_bin", "setting": "[5]; kinetics bin", "result": "inactive"}, {"measurement": "hepg2_flor_emax_0", "setting": "[5]; time point 0", "result": 0}, {"measurement": "hepg2_flor_pod_0", "setting": "[5]; time point 0", "result": -4.417}, {"measurement": "hepg2_flor_wauc_0", "setting": "[5]; time point 0", "result": 0}, {"measurement": "hepg2_flor_emax_8", "setting": "[5]; time point 8", "result": 0}, {"measurement": "hepg2_flor_pod_8", "setting": "[5]; time point 8", "result": -4.417}, {"measurement": "hepg2_flor_wauc_8", "setting": "[5]; time point 8", "result": 0}, {"measurement": "hepg2_flor_emax_16", "setting": "[5]; time point 16", "result": 0}, {"measurement": "hepg2_flor_pod_16", "setting": "[5]; time point 16", "result": -4.417}, {"measurement": "hepg2_flor_wauc_16", "setting": "[5]; time point 16", "result": 0}, {"measurement": "hepg2_flor_emax_24", "setting": "[5]; time point 24", "result": 0}, {"measurement": "hepg2_flor_pod_24", "setting": "[5]; time point 24", "result": -4.417}, {"measurement": "hepg2_flor_wauc_24", "setting": "[5]; time point 24", "result": 0}, {"measurement": "hepg2_flor_emax_32", "setting": "[5]; time point 32", "result": 0}, {"measurement": "hepg2_flor_pod_32", "setting": "[5]; time point 32", "result": -4.417}, {"measurement": "hepg2_flor_wauc_32", "setting": "[5]; time point 32", "result": 0}, {"measurement": "hepg2_flor_emax_40", "setting": "[5]; time point 40", "result": 0}, {"measurement": "hepg2_flor_pod_40", "setting": "[5]; time point 40", "result": -4.417}, {"measurement": "hepg2_flor_wauc_40", "setting": "[5]; time point 40", "result": 0}]}]}
